26 molecules from patent publication US10195196B2, “1,4-disubstituted pyridazine analogs there of and methods for treating SMN-deficiency-related conditions” (NOVARTIS AG, priority 2012, dated 2019) can be followed below.

The subject of this test is SMN protein. Nature of the test: cellular SMN ELISA (SMN protein elevation). The conditions noted are these: myoblast cell line from SMNdelta7 mouse model, 24 hours treatment; for SMN activity Fold: fold activation over DMSO control. The test is classed as cell-based. Here is the method:
A cellular SMN ELISA was used to measure the effects of low molecular weight compounds on SMN protein elevation. Cells from a myoblast cell line derived from the SMNdelta7 mouse model (kind gift from Steve Burden, NYU) were seeded into a 384-well plate at a density of 3000 cells/well and treated with compounds for 24 hours. ELISA capture plates were prepared by coating 384-well plates (Immulon 4HBX) with 0.5 ug/mL of anti-SMN mAb (BD Science, Catalog number 610647) at 4° C. overnight. The plates were washed 5 times with 110 uL of PBS-Tween (0.05% Tween-20, PBST), blocked with 100 uL of 1% BSA in PBST for 2 hours and washed (5 times) with 100 uL of PBST. After 24 hours of compound treatment cells were lysed in a modified RIPA-buffer, on ice for 1 hour. 20 uL of lysate and 20 uL of 1% BSA were then added to the ELISA capture plates and incubated at 4° C. overnight. Plates were washed (5 times) with PBST and then incubated with 1:100 dilution of primary rabbit anti-SMN polyclonal antibody (Santa cruz, Catalog number SC-15320) at room temperature for 1 hour and subsequently washed (5 times) with 110 uL of PBST. This was followed by addition of 1:100 Goat anti-Rabbit IgG-HRP linked (Cell Signaling, Catalog number 7074) secondary antibody for 1 hour. Plates were then washed with PBST and incubated with 40 uL TMB substrate (Cell Signaling, Catalog number 7004L) at room temperature for 1-10 minutes with shaking. The reaction was stopped by addition of 40 uL of stop solution (Cell signaling, Catalog number 7002L) and absorption was measured at 450 nm. Data was reported as fold activation over DMSO control, and EC50.
ELISA assay condition 1: compound concentration range 20 nM-10 uM; ELISA assay condition 2: compound concentration 100 pM-10 uM.
(In an ELISA, binding on a coated surface is turned into a signal by an enzyme label.)

Where [1] appears, read: ELISA condition 1: compound concentration range 20 nM-10 uM.
Setting [2] is: ELISA condition 2: compound concentration 100 pM-10 uM.

Usually EC50 stands for the concentration that produces a half-maximal response. A higher EC50 goes with weaker potency.

Turning to `CN(c1ccc(-c2ccc(Cl)cc2O)nn1)C1CC(C)(C)N(C)C(C)(C)C1` [Example 3-2, 5-chloro-2-(6-(methyl(1,2,2,6,6-pentamethylpiperidin-4-yl)amino)pyridazin-3-yl)phenol], under setting [1], a half-maximal response (EC50) required 1070 nM and the “SMN activity Fold” value worked out at 2.06 Fold.
`CC1(C)CC(Nc2ccc(-c3cc4ccccc4cc3O)nn2)CC(C)(C)N1` [Example 3-3, 3-(6-(2,2,6,6-tetramethylpiperidin-4-ylamino)pyridazin-3-yl)naphthalen-2-ol]: under setting [1], the EC50 stood at 64 nM and the “SMN activity Fold” value was 2.48 Fold.
On to `CN1C(C)(C)CC(Nc2ccc(-c3ccc(Cl)cc3O)nn2)CC1(C)C` [Example 3-4, 5-chloro-2-(6-(1,2,2,6,6-pentamethylpiperidin-4-ylamino)pyridazin-3-yl)phenol], for which, under setting [1], the half-maximal effective concentration (EC50) amounted to 620 nM and the “SMN activity Fold” value is reported as 2.03 Fold.
Taken in the same sequence, the figures for `CN(c1ccc(-c2cc(C#N)ccc2O)nn1)C1CC(C)(C)NC(C)(C)C1` [Example 3-5, 4-hydroxy-3-(6-(methyl(2,2,6,6-tetramethylpiperidin-4-yl)amino)pyridazin-3-yl)benzonitrile] were 100 nM and 2.38 Fold.
On to `CC1(C)CC(Oc2ccc(-c3cc4ccccc4cc3O)nn2)CC(C)(C)N1` [Example 3-6, 3-[6-(2,2,6,6-tetramethyl-piperidin-4-yloxy)-pyridazin-3-yl]-naphthalen-2-ol], for which, under setting [2], the EC50 turned out to be 110 nM and the “SMN activity Fold” value is reported as 3.01 Fold.
In the case of `CN(c1ccc(-c2cc(C(F)(F)F)ccc2O)nn1)C1CC(C)(C)NC(C)(C)C1` [Example 3-7, 2-{6-[methyl-(2,2,6,6-tetramethyl-piperidin-4-yl)-amino]-pyridazin-3-yl}-4-trifluoromethyl-phenol], under setting [1], the concentration for a half-maximal effect (EC50) turned out to be 4530 nM and the “SMN activity Fold” value is 2.67 Fold.
Consider `CN(c1ccc(-c2cccc(F)c2O)nn1)C1CC(C)(C)NC(C)(C)C1` [Example 3-8, 2-fluoro-6-{6-[methyl-(2,2,6,6-tetramethyl-piperidin-4-yl)-amino]-pyridazin-3-yl}-phenol], for which, under setting [2], the half-maximal effective concentration (EC50) was found to be 1580 nM and the “SMN activity Fold” value came to 2.72 Fold.
Regarding `COc1cc(O)c(-c2ccc(N(C)C3CC(C)(C)NC(C)(C)C3)nn2)c(OC)c1` [Example 3-9, 3,5-dimethoxy-2-{6-[methyl-(2,2,6,6-tetramethyl-piperidin-4-yl)-amino]-pyridazin-3-yl}-phenol], under setting [2], the EC50 was 323 nM and the “SMN activity Fold” value amounted to 2.88 Fold.
Taken in the same sequence, the figures for `COc1cc(O)c(-c2ccc(N(C)C3CC(C)(C)NC(C)(C)C3)nn2)cc1OC` [Example 3-10, 4,5-dimethoxy-2-{6-[methyl-(2,2,6,6-tetramethyl-piperidin-4-yl)-amino]-pyridazin-3-yl}-phenol] were 855 nM and 2.53 Fold.
In the same order, the values of `COc1ccc(-c2ccc(N(C)C3CC(C)(C)NC(C)(C)C3)nn2)c(O)c1` [Example 3-11, 5-methoxy-2-{6-[methyl-(2,2,6,6-tetramethyl-piperidin-4-yl)-amino]-pyridazin-3-yl}-phenol] are 220 nM and 2.47 Fold.
With `CN(c1ccc(-c2cc(F)c(F)cc2O)nn1)C1CC(C)(C)NC(C)(C)C1` [Example 3-12, 4,5-difluoro-2-{6-[methyl-(2,2,6,6-tetramethyl-piperidin-4-yl)-amino]-pyridazin-3-yl}-phenol], under setting [1], the 50% effective concentration (EC50) was 129 nM and the “SMN activity Fold” value is reported as 2.70 Fold.
For the molecule `C=CCc1c(O)ccc2cc(-c3ccc(N(C)C4CC(C)(C)NC(C)(C)C4)nn3)ccc12` [Example 6-1, 1-allyl-6-(6-(methyl(2,2,6,6-tetramethylpiperidin-4-yl)amino)pyridazin-3-yl)naphthalen-2-ol], under setting [2], the concentration giving a half-maximal response (EC50) was found to be 630 nM and the “SMN activity Fold” value is given as 2.04 Fold.
`CN1C(C)(C)CC(Nc2ccc(-c3cc4ccccc4s3)nn2)CC1(C)C` [Example 7-1, 6-(benzo[b]thiophen-2-yl)-N-(1,2,2,6,6-pentamethylpiperidin-4-yl)pyridazin-3-amine]: under setting [1], the 50% effective concentration (EC50) was 2730 nM and the “SMN activity Fold” value amounted to 2.54 Fold.
Taken in the same sequence, the figures for `C=CCNC(=O)c1ccc(-c2ccc(N(C)C3CC(C)(C)NC(C)(C)C3)nn2)c(O)c1` [Example 8-1, N-allyl-3-hydroxy-4-(6-(methyl(2,2,6,6-tetramethylpiperidin-4-yl)amino)pyridazin-3-yl)benzamide] were 280 nM and 2.72 Fold.
On to `Cc1cnc(-c2ccc(-c3ccc(N(C)C4CC(C)(C)NC(C)(C)C4)nn3)c(O)c2)o1` [Example 10-1, 5-(5-methyl-oxazol-2-yl)-2-{6-[methyl-(2,2,6,6-tetramethyl-piperidin-4-yl)-amino]-pyridazin-3-yl}-phenol], for which, under setting [2], the EC50 was 31 nM and the “SMN activity Fold” value worked out at 2.99 Fold.
Taken in the same sequence, the figures for `CN(c1ccc(-c2ccc(-n3ccnc3)cc2O)nn1)C1CC(C)(C)NC(C)(C)C1` [Example 12-1, 5-(1H-imidazole-1-yl)-2-(6-(methyl(2,2,6,6-tetramethyl-piperidin-4-yl)amino)pyridazin-3-yl)phenol] were 4 nM and 3.13 Fold.
As for `CN(c1ccc(-c2ccc(-n3cc(N)cn3)cc2O)nn1)C1CC(C)(C)NC(C)(C)C1` [Example 13-1, 5-(4-amino-1H-pyrazole-1-yl)-2-(6-(methyl(2,2,6,6-tetramethylpiperidin-4-yl)amino)pyridazin-3-yl)phenol], under setting [2], a half-maximal response (EC50) required 20 nM and the “SMN activity Fold” value turned out to be 3.46 Fold.
In the same order, the values of `CN(c1ccc(-c2ccc(-c3cnn(CCN4CCOCC4)c3)cc2O)nn1)C1CC(C)(C)NC(C)(C)C1` [Example 16-1, 2-(6-(methyl(2,2,6,6-tetramethylpiperidin-4-yl)amino)pyridazin-3-yl)-5-(1-(2-morpholino-ethyl)-1H-pyrazol-4-yl)phenol] are 77 nM and 2.66 Fold.
In the same order, the values of `CN(c1ccc(-c2ccc(-c3cnn(C)c3)cc2O)nn1)C1CC(C)(C)NC(C)(C)C1` [Example 16-2, 2-(6-(methyl(2,2,6,6-tetramethylpiperidin-4-yl)amino)pyridazin-3-yl)-5-(1-methyl-1H-pyrazol-4-yl)phenol] are 15 nM and 3.21 Fold.
On to `CN(c1ccc(-c2ccc(-n3nccc3N)cc2O)nn1)C1CC(C)(C)NC(C)(C)C1` [Example 16-3, 5-(5-amino-1H-pyrazol-1-yl)-2-(6-(methyl-(2,2,6,6-tetramethyl-piperidin-4-yl)amino)pyridazin-3-yl)phenol], for which, under setting [2], the EC50 amounted to 625 nM and the “SMN activity Fold” value amounted to 2.39 Fold.
Taken in the same sequence, the figures for `CN(c1ccc(-c2cc(-n3cccn3)ccc2O)nn1)C1CC(C)(C)NC(C)(C)C1` [Example 16-4, 2-(6-(methyl(2,2,6,6-tetramethylpiperidin-4-yl)amino)pyridazin-3-yl)-4-(1H-pyrazol-1-yl)phenol] were 94 nM and 2.71 Fold.
Taken in the same sequence, the figures for `CC1(C)CC(N(CCO)c2ccc(-c3ccc(-n4cccn4)cc3O)nn2)CC(C)(C)N1` [Example 16-5, 2-{6-[(2-hydroxy-ethyl)-(2,2,6,6-tetramethyl-piperidin-4-yl)-amino]-pyridazin-3-yl}-5-pyrazol-1-yl-phenol] were 24 nM and 2.41 Fold.
Regarding `C[C@@H]1C[C@H](Oc2ccc(-c3ccc(-n4cccn4)cc3O)nn2)C[C@H](C)N1` [Example 17-2, 2-(6-(((2S,4R,6R)-2,6-Dimethylpiperidin-4-yl)oxy)pyridazin-3-yl)-5-(1H-pyrazol-1-yl)phenol], under setting [1], the 50% effective concentration (EC50) was found to be 70 nM and the “SMN activity Fold” value came out at 2.62 Fold.
With `Oc1cc(-n2cccn2)ccc1-c1ccc(OC2CCNC2)nn1` (stereo not shown) [Example 17-5, 5-(1H-pyrazol-1-yl)-2-(6-(pyrrolidin-3-yloxy)pyridazin-3-yl)phenol], under setting [2], the concentration giving a half-maximal response (EC50) stood at 2440 nM and the “SMN activity Fold” value was determined as 2.78 Fold.
In the same order, the values of `Oc1cc(-n2cccn2)ccc1-c1ccc(OC2CCNCC2F)nn1` (stereo not shown) [Example 17-10, 2-(6-((3-fluoropiperidin-4-yl)oxy)pyridazin-3-yl)-5-(1H-pyrazol-1-yl)-phenol] are 945 nM and 2.03 Fold.
In the same order, the values of `CN1C(C)(C)CC(Oc2ccc(-c3ccc(-n4cccn4)cc3O)nn2)CC1(C)C` [Example 17-11, 2-[6-(1,2,2,6,6-pentamethyl-piperidin-4-yloxy)-pyridazin-3-yl]-5-pyrazol-1-yl-phenol] are 665 nM and 3.01 Fold.
